# In patent US20210283107A1, “Methods to Expand the Spectrum of Gram-Positive Antibiotics” (NORTH CAROLINA STATE UNIVERSITY, priority 2016, published 2021):
# Values joined by “and” are separate entries in the source; they are usually repeats but may differ in a detail not shown here. Identical values can stand only once.
# Legend:
# [1] = test system: A. baumannii strain 5075 (AB5075); test: Broth microdilution MIC determination of compound alone; format: cell-based; details: Acinetobacter baumannii; compound alone; AB5075; read-out: MIC
# Procedure: Our initial screening began by testing a diverse selection of 2-AI compounds from our internal library for their minimal inhibitory concentrations (MIC) against A. baumannii isolate 5075.
# (§1) Day Cultures (6 h) were subcultured to 5×10^5 CFU/mL in cation adjusted Mueller-Hinton broth (CAMHB). Aliquots (1 mL) were placed in culture tubes, and compound was added from 100 mM stock solutions, such that the compound concentration equaled the highest concentration tested (200 μM or 64 μg/mL). Samples were then aliquoted (200 μL) into the first row of wells of a 96-well plate, with all remaining wells being filled with 100 μL of initial bacterial subculture. The wells in row one were mixed five times before 100 μL was transferred to the following row (row two). Row two was then mixed five times, and 100 μL was transferred to row three. This processed was repeated until the final row had been mixed. This process provided a serial dilution of the compound. Plates were covered with Glad Press n'Seal and were incubated under stationary conditions at 37° C. for 16 hours. MIC values were recorded as the lowest concentration at which no bacterial growth was observed.
# [2] = test system: A. baumannii strain 5075 (AB5075); test: Macrolide sensitization / antibiotic resensitization: antibiotic MIC in presence of compound (broth microdilution); format: cell-based, Acinetobacter baumannii; details: for Fold reduction (erythromycin MIC): compound at 60 μM vs antibiotic alone; for MIC: Acinetobacter baumannii, read-out: MIC (μg/mL) of the antibiotic
# Procedure: A. baumannii 5075 was plated on LB agar, then grown in CAMHB for 6-8 h and this culture was used to inoculate fresh CAMHB (5×10^5 CFU/mL). The resulting suspension was aliquoted (5 mL) into culture tubes and compound, from 100 mM DMSO stock, was added. One aliquot was not treated (control). 1 mL of each sample was transferred to a new culture tube and antibiotic was added. Rows 2-12 of a 96-well microtiter plate were filled with 100 μL/well from the remaining 4 mL bacterial subcultures, allowing the concentration of compound to be kept uniform throughout the antibiotic dilution procedure. Samples containing antibiotic were aliquoted (200 μL) into the corresponding first row wells of the microtiter plate. Row 1 wells were mixed 6 to 8 times then 100 μL was withdrawn and transferred to row 2. Row 2 wells were mixed 6 to 8 times, followed by a 100 μL transfer from row 2 to row 3. This procedure was repeated to serially dilute the rest of the rows of the microtiter plate, with the exception of the final row, to which no antibiotic was added (to check for growth of bacteria in the presence of compound alone). The microtiter plate was then covered, placed in a covered damp plastic container and incubated under stationary conditions at 37° C. After 16-18 hrs minimum inhibitory concentration (MIC) values were recorded as the lowest concentration of antibiotic at which there was no visible growth of bacteria. Experiments were carried out in duplicate each time and repeated at least twice.
# The difference in antibiotic MIC between the control (no compound) sample, and the samples containing each compound was recorded as the fold-reduction.
# (§2) Day Cultures (6 h) were subcultured to 5×10^5 CFU/mL in cation adjusted Mueller-Hinton broth (CAMHB). […] One milliliter of the resulting solution was aliquoted into a separate culture tube and was dosed with antibiotic so that the resulting concentration was the highest desirable concentration to be tested. Bacteria treated with antibiotic alone were used as a control. Row one of a 96-well plate was filled with 200 μL of the antibiotic/compound solution, and the remaining rows were filled with 100 μL of the remaining 4 mL bacterial subculture. The wells in row one were mixed five times before 100 μL was transferred to the following row (row two). Row two was then mixed five times, and 100 μL was transferred to row three. This process was repeated until the second to last row had been reached. The last row is left unexposed to antibiotic in order to serve as a negative control. The antibiotic only treated bacteria was plated by aliquoting 200 μL of the treated bacteria into row one and filling the remaining rows with untreated bacteria from the original bacteria subculture. The rows were mixed in the same way as described above. Plates were covered with Glad Press n'Seal and were incubated under stationary conditions at 37° C. for 16 hours. MIC values were recorded as the lowest concentration at which no bacterial growth was observed. Fold reductions were determined by comparison of the compound treated wells with the antibiotic only treated control wells.
# AB 5075 = test: Backlight assay for membrane permeability; format: cell-based, Acinetobacter baumannii; details: AB5075
# Procedure: The assay was initially performed at 10, 20 and 30 μM with compounds 1 and 4 (Table 16). […] When the concentration is lowered to 20 μM, the percent of membrane disrupted also decreases to 78% and 83% respectively. When further decreasing the concentration to 10 μM, the membrane disruption decreases to 39 and 44% respectively. Due to the similar structure and lack of potentiation activity, compound 25 was screened at 10, 20 and 30 μM to compare membrane permeability with that of active compounds. The percent disruption was less than seen with compounds 1 and 4 being 53, 54 and 60% respectively.
# [3] = test system: A. baumannii mutant AB522; test: MIC against Tn-seq transposon mutant AB522; format: cell-based; details: Acinetobacter baumannii
# Procedure: (§3) During individual MIC screening, two mutants, AB522 and AB1310, were identified due to their increased sensitivity to the three macrolide antibiotics and vancomycin when compared to AB 5075 (Table 17).
# as §1
# [4] = test system: A. baumannii mutant AB1310; test: MIC against Tn-seq transposon mutant AB1310; format: cell-based; details: Acinetobacter baumannii
# Procedure: as §3, §1
# A. baumannii strain 3560 = test: Potentiation of clarithromycin and vancomycin against clinical isolate; format: cell-based, Acinetobacter baumannii; details: antibiotic alone
# Procedure: (§4) As previously stated, A. baumannii 5075 was chosen for these studies due to its virulence and multidrug resistance, but to further analyze the activity of our lead compounds, 23 A. baumannii clinical isolates obtained from Walter Reed Army Institute of Research (WRAIR) were tested.
# as §2
# A. baumannii strain 3785 = test: as above; format: cell-based, Acinetobacter baumannii; details: antibiotic alone
# Procedure: as §4, §2
# A. baumannii strain 3806 = test: as above; format: cell-based, Acinetobacter baumannii; details: antibiotic alone
# Procedure: as §4, §2
# A. baumannii strain 3927 = test: as above; format: cell-based, Acinetobacter baumannii; details: antibiotic alone
# Procedure: as §4, §2
# A. baumannii strain 4025 = test: as above; format: cell-based, Acinetobacter baumannii; details: antibiotic alone
# Procedure: as §4, §2
# A. baumannii strain 4026 = test: as above; format: cell-based, Acinetobacter baumannii; details: antibiotic alone
# Procedure: as §4, §2
# A. baumannii strain 4027 = test: as above; format: cell-based, Acinetobacter baumannii; details: antibiotic alone
# Procedure: as §4, §2
# A. baumannii strain 4052 = test: as above; format: cell-based, Acinetobacter baumannii; details: antibiotic alone
# Procedure: as §4, §2
# A. baumannii strain 4269 = test: as above; format: cell-based, Acinetobacter baumannii; details: antibiotic alone
# Procedure: as §4, §2
# A. baumannii strain 4448 = test: as above; format: cell-based, Acinetobacter baumannii; details: antibiotic alone
# Procedure: as §4, §2
# A. baumannii strain 4456 = test: as above; format: cell-based, Acinetobacter baumannii; details: antibiotic alone
# Procedure: as §4, §2
# A. baumannii strain 4490 = test: as above; format: cell-based, Acinetobacter baumannii; details: antibiotic alone
# Procedure: as §4, §2
# A. baumannii strain 4498 = test: as above; format: cell-based, Acinetobacter baumannii; details: antibiotic alone
# Procedure: as §4, §2
# A. baumannii strain 4795 = test: as above; format: cell-based, Acinetobacter baumannii; details: antibiotic alone
# Procedure: as §4, §2
# A. baumannii strain 4878 = test: as above; format: cell-based, Acinetobacter baumannii; details: antibiotic alone
# Procedure: as §4, §2
# A. baumannii strain 4957 = test: as above; format: cell-based, Acinetobacter baumannii; details: antibiotic alone
# Procedure: as §4, §2
# A. baumannii strain 4991 = test: as above; format: cell-based, Acinetobacter baumannii; details: antibiotic alone
# Procedure: as §4, §2
# A. baumannii strain 5001 = test: as above; format: cell-based, Acinetobacter baumannii; details: antibiotic alone
# Procedure: as §4, §2
# A. baumannii strain 5197 = test: as above; format: cell-based, Acinetobacter baumannii; details: antibiotic alone
# Procedure: as §4, §2
# A. baumannii strain 5256 = test: as above; format: cell-based, Acinetobacter baumannii; details: antibiotic alone
# Procedure: as §4, §2
# A. baumannii strain 5711 = test: as above; format: cell-based, Acinetobacter baumannii; details: antibiotic alone
# Procedure: as §4, §2
# A. baumannii strain 8967 = test: as above; format: cell-based, Acinetobacter baumannii; details: antibiotic alone
# Procedure: as §4, §2
smiles,measurement,setting,value
Nc1nc(-c2ccc(NC(=O)c3ccc(Cl)cc3Cl)cc2)c[nH]1 [Compound 20],MIC,[1],> 200 µM
same,Fold reduction (erythromycin MIC),[2]; AB5075,4 fold
Nc1nc(-c2ccc(NC(=O)c3ccc(Br)cc3F)cc2)c[nH]1 [Compound 21],MIC,[1],> 200 µM
same,Fold reduction (erythromycin MIC),[2]; AB5075,8 fold
Nc1nc(-c2ccc(NC(=O)c3ccc(I)cc3)cc2)c[nH]1 [Compound 25],MIC,[1],> 200 µM
same,Disrupted bacterial membrane (%),AB 5075; compound at 10 μM,53% and 53.7%
same,Disrupted bacterial membrane (%),AB 5075; compound at 20 μM,54%
same,Disrupted bacterial membrane (%),AB 5075; compound at 30 μM,60%
CC[C@H]1OC(=O)[C@H](C)[C@@H](O[C@H]2C[C@@](C)(OC)[C@@H](O)[C@H](C)O2)[C@H](C)[C@@H](O[C@@H]2O[C@H](C)C[C@H](N(C)C)[C@H]2O)[C@](C)(O)C[C@@H](C)C(=O)[C@H](C)[C@@H](O)[C@]1(C)O [Erythromycin],MIC,"[2]; antibiotic alone, no compound (control row), AB5075",32 µg/mL
same,MIC,[3],2 µg/mL
same,MIC,[4],4 µg/mL
"CN[C@H](CC(C)C)C(=O)N[C@H]1C(=O)N[C@@H](CC(N)=O)C(=O)N[C@H]2C(=O)N[C@H]3C(=O)N[C@H](C(=O)N[C@H](C(=O)O)c4cc(O)cc(O)c4-c4cc3ccc4O)[C@H](O)c3ccc(c(Cl)c3)Oc3cc2cc(c3O[C@@H]2O[C@H](CO)[C@@H](O)[C@H](O)[C@H]2O[C@H]2C[C@](C)(N)[C@H](O)[C@H](C)O2)Oc2ccc(cc2Cl)[C@H]1O [Vancomycin, reference compound]",MIC,[2],256 µg/mL
same,MIC,[3],64 µg/mL
same,MIC,[4],64 µg/mL
same,MIC (μg/mL) of the antibiotic,A. baumannii strain 3560,256 µg/mL
same,MIC (μg/mL) of the antibiotic,A. baumannii strain 3785,512 µg/mL
same,MIC (μg/mL) of the antibiotic,A. baumannii strain 3806,256 µg/mL
same,MIC (μg/mL) of the antibiotic,A. baumannii strain 3927,256 µg/mL
same,MIC (μg/mL) of the antibiotic,A. baumannii strain 4025,512 µg/mL
same,MIC (μg/mL) of the antibiotic,A. baumannii strain 4026,512 µg/mL
same,MIC (μg/mL) of the antibiotic,A. baumannii strain 4027,512 µg/mL
same,MIC (μg/mL) of the antibiotic,A. baumannii strain 4052,>512 µg/mL
same,MIC (μg/mL) of the antibiotic,A. baumannii strain 4269,512 µg/mL
same,MIC (μg/mL) of the antibiotic,A. baumannii strain 4448,512 µg/mL
same,MIC (μg/mL) of the antibiotic,A. baumannii strain 4456,512 µg/mL
same,MIC (μg/mL) of the antibiotic,A. baumannii strain 4490,256 µg/mL
same,MIC (μg/mL) of the antibiotic,A. baumannii strain 4498,512 µg/mL
same,MIC (μg/mL) of the antibiotic,A. baumannii strain 4795,>512 µg/mL
same,MIC (μg/mL) of the antibiotic,A. baumannii strain 4878,512 µg/mL
same,MIC (μg/mL) of the antibiotic,A. baumannii strain 4957,512 µg/mL
same,MIC (μg/mL) of the antibiotic,A. baumannii strain 4991,512 µg/mL
same,MIC (μg/mL) of the antibiotic,A. baumannii strain 5001,512 µg/mL
same,MIC (μg/mL) of the antibiotic,A. baumannii strain 5197,512 µg/mL
same,MIC (μg/mL) of the antibiotic,A. baumannii strain 5256,512 µg/mL
same,MIC (μg/mL) of the antibiotic,A. baumannii strain 5711,>512 µg/mL
same,MIC (μg/mL) of the antibiotic,A. baumannii strain 8967,512 µg/mL
